Measurements: US10703756B2, “Pyrrolo[2,3-D]pyrimidinyl, pyrrolo[2,3-B]pyrazinyl, pyrrolo[2,3-B]pyridinyl acrylamides and epoxides thereof” (Pfizer Inc., priority 2015, dated 2020)

Columns and labels:
JAK3 enzyme [1] = target: T1, JAK3 enzyme (Homo sapiens, UniProt P52333); assay: JAK Caliper Enzyme Assay at 4 μM ATP; assay type: biochemical
T1 sequence (P52333 1-1124): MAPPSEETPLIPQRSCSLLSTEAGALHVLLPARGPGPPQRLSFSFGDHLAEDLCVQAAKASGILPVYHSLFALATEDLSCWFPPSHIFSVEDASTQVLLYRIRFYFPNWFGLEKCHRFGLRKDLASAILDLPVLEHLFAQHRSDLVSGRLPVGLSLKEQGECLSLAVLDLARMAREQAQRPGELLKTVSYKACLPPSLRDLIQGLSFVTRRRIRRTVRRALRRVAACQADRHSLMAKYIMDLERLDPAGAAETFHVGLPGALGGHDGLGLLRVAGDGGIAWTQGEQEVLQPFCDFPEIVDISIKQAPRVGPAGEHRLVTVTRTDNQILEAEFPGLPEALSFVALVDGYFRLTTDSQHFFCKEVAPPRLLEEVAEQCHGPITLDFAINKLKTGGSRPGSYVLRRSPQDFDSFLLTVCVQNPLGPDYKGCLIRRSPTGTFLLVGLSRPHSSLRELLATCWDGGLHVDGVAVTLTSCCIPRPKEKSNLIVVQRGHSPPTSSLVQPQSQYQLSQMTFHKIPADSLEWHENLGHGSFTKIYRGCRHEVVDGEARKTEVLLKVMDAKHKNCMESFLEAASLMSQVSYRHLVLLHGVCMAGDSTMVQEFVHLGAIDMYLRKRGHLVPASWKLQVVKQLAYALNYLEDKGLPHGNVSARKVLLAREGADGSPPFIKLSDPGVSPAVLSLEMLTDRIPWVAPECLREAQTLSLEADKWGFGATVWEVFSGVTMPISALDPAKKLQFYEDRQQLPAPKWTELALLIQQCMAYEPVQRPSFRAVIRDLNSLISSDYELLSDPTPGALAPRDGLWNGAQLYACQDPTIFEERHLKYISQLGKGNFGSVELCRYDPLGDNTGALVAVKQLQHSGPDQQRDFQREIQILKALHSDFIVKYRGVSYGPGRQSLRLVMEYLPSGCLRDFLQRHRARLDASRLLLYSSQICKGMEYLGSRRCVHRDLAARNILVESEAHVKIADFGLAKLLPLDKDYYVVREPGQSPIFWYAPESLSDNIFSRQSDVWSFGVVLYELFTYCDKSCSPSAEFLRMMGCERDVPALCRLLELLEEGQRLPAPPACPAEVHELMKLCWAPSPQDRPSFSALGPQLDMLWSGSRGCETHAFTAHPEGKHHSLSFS
Summary of the method: (§1)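 Test compounds were diluted in DMSO as an 11-point half-log series from a 600 μM top concentration (DMSO series, not final assay level). Enzyme amount and incubation time were set per enzyme prep to reach 20%-30% phosphorylation. Phosphorylated and unphosphorylated peptide were resolved by microfluidic separation.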

JAK3 enzyme [2] = target: T1, JAK3 enzyme; assay: JAK Caliper Enzyme Assay at 1 mM ATP; assay type: biochemical
Summary of the method: as §1

[3] = Stability of JAK3 Covalent Inhibitors in Human Whole Blood; assay type: in vitro ADME; conditions: both sexes, 1 μM test compound, 37° C., 180 min incubation, read-out: Human blood stability t1/2
Experimental: Stability of JAK3 Covalent Inhibitors in Rat and Human Whole Blood
Rat blood was collected from 3 male Sprague-Dawley rats (200-250 g, Charles River Laboratories) and pooled for each study. Human blood was collected from healthy subjects at the Occupational Health & Wellness Center at Pfizer, Groton, Conn. and pooled for each study. Both rat and human blood was collected freshly into K2-EDTA tubes and kept on ice. An aliquot of the blood was transferred to microtubes and pre-warmed for 10 min at 37° C. using a heat block. The test compound was then added (1 μM final concentration) and the incubation was continued for 180 min at 37° C. in duplicates. An aliquot of the incubation mixture was removed at designated time points during the course of the incubation, mixed with an aliquot of acetonitrile containing an internal standard, vortexed and centrifuged. The resulting supernatants were removed and subjected to LC-MS/MS analyses to determine parent compound concentrations. Peak area ratios of the parent compound vs the internal standard were used to determine the % of parent compound remaining vs incubation time.

[4] = tested on: IL-15 induced P-STAT5 in human PBMC; assay: PBMC IL-15 Induced P-STAT5; assay type: cell-based; conditions: human PBMC, IL-15 final 41 ng/mL; read-out: PBMC IL15_pSTAT5_IC50
Summary of the method: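 Thawed human PBMC, rested in human plasma, were preincubated 15 min at 37 °C with compound (0.2% DMSO), then stimulated 15 min with IL-15 at 41 ng/mL final. After paraformaldehyde fixation and methanol permeabilisation, Alexa Fluor 647 anti-STAT5 staining overnight at 4 °C was analysed by flow cytometry on total lymphocytes.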

Compound | IC50 (JAK3 enzyme [1]) [nM] | IC50 (JAK3 enzyme [2]) [nM] | half-life at 1 μM [3] [h] | IC50 [4] [nM]
C=CC(=O)N1CC[C@H](COc2cnc3[nH]cc(C(=O)N[C@@H](C)COC)c3n2)C1 (single isomer, unassigned) [Example 11] | 1.61 | 308 | 3.46 | 
C=CC(=O)N1C[C@H](Nc2cnc3[nH]cc(C(=O)N[C@@H](C)COC)c3n2)CC[C@@H]1C (single isomer, unassigned) [Example 66] | 6.21 | 412 | > 6 | 
C=CC(=O)N1C[C@@H](Nc2cnc3[nH]cc(C(=O)N[C@H](C)COC)c3n2)CC[C@H]1C (single isomer, unassigned) [Example 70] | 9.1 | 1390 | > 6 | 
C=CC(=O)N1C[C@H](Oc2cnc3[nH]cc(C(=O)N[C@@H](C)COC)c3n2)CC[C@@H]1C (single isomer, unassigned) [Example 81] |  | 76.9 | > 6 | 
C=CC(=O)N1CC[C@H](Nc2cnc3c(n2)c(C(=O)NCC)cn3C)C[C@@H]1C (single isomer, unassigned) [Example 350] | 32.1 | 4370 | > 6 | 
C=CC(=O)N1CC[C@@H](Nc2cnc3c(n2)c(C(=O)NCC)cn3C)C[C@H]1C (single isomer, unassigned) [Example 351] | 2.88 | 838 | 5.52 | 
C=CC(=O)N1CCC[C@@H](Oc2cnc3[nH]cc(C(=O)N[C@@H](C)COC)c3n2)C1 [Example 49, 2-{[(3R)-1-acryloylpiperidin-3-yl]oxy}-N-[(2S)-1-methoxypropan-2-yl]-5H-pyrrolo[2,3-b]pyrazine-7-carboxamide] | 27.1 | 2100 | 3.27 | 
C=CC(=O)N(C)C1CN(c2cnc3[nH]cc(C(=O)N[C@@H](C)COC)c3n2)C1 [Example 85, 2-{3-[acryloyl(methyl)amino]azetidin-1-yl}-N-[(2S)-1-methoxypropan-2-yl]-5H-pyrrolo[2,3-b]pyrazine-7-carboxamide] | 2.91 | 467 | 1.38 | 
C=CC(=O)N1CCC(Oc2cnc3[nH]cc(-c4n[nH]c(C)n4)c3n2)CC1 [Example 115, 1-(4-{[7-(5-Methyl-1H-1,2,4-triazol-3-yl)-5H-pyrrolo[2,3-b]pyrazin-2-yl]oxy}piperidin-1-yl)prop-2-en-1-one] | 8.31 | 929 | 3.77 | 
C=CC(=O)N1CCC(Oc2cnc3[nH]cc(-c4nnc[nH]4)c3n2)CC1 [Example 120, 1-(4-{[7-(4H-1,2,4-Triazol-3-yl)-5H-pyrrolo[2,3-b]pyrazin-2-yl]oxy}piperidin-1-yl)prop-2-en-1-one] | 4.48 | 725 | > 6 | 
C=CC(=O)N1CC[C@H](Nc2cnc3[nH]cc(C(=O)NC[C@H](C)CC(F)(F)F)c3n2)[C@H](OC)C1 [Example 294, 2-[((3R,4S)-1-acryloyl-3-methoxypiperidin-4-yl)amino]-N-([2R]-4,4,4-trifluoro-2-methylbutyl)-5H-pyrrolo[2,3-b]pyrazine-7-carboxamide] | 1.16 | 62 |  | 575
C=CC(=O)N1CCC(C)(Nc2cnc3[nH]cc(C(=O)NCC(C)(F)F)c3n2)CC1 [Example 296, 2-[(1-acryloyl-4-methylpiperidin-4-yl)amino]-N-(2,2-difluoropropyl)-5H-pyrrolo[2,3-b]pyrazine-7-carboxamide] | 0.519 | 57 |  | 609
C=CC(=O)N1CC[C@@H](Nc2cnc3[nH]cc(C(=O)NCC(C)(C)C)c3n2)[C@@H](OC)C1 [Example 300, 2-{[(3S,4R)-1-acryloyl-3-methoxypiperidin-4-yl]amino}-N-(2,2-dimethylpropyl)-5H-pyrrolo[2,3-b]pyrazine-7-carboxamide] | 0.69 | 92 |  | 700
C=CC(=O)N1CCN(c2cnc3[nH]cc(C(=O)NCC4(O)CCC(F)(F)CC4)c3n2)C[C@@H]1CC(C)C [Example 302, 2-[(3S)-4-acryloyl-3-(2-methylpropyl)piperazin-1-yl]-N-[(4,4-difluoro-1-hydroxycyclohexyl)methyl]-5H-pyrrolo[2,3-b]pyrazine-7-carboxamide] | 2.89 | 385 |  | 1190
C=CC(=O)N1CCC(C)(Nc2cnc3[nH]cc(C(=O)NCC4CC(F)(F)C4)c3n2)CC1 [Example 306, 2-[(1-acryloyl-4-methylpiperidin-4-yl)amino]-N-[(3,3-difluorocyclobutyl)methyl]-5H-pyrrolo[2,3-b]pyrazine-7-carboxamide] | 0.705 | 107 |  | 1570
C=CC(=O)N1CCN(c2cnc3[nH]cc(C(=O)NCC)c3n2)CC1(C)C [Example 307, 2-(4-acryloyl-3,3-dimethylpiperazin-1-yl)-N-ethyl-5H-pyrrolo[2,3-b]pyrazine-7-carboxamide] | 9.82 | 1080 |  | 2130
C=CC(=O)N1CC[C@@H](Nc2cnc3[nH]cc(C(=O)NCC4CC(F)(F)C4)c3n2)[C@@H](OC)C1 [Example 309, 2-{[(3S,4R)-1-acryloyl-3-methoxypiperidin-4-yl]amino}-N-[(3,3-difluorocyclobutyl)methyl]-5H-pyrrolo[2,3-b]pyrazine-7-carboxamide] | 0.898 | 59 |  | 526
C=CC(=O)N1CCN(c2cnc3[nH]cc(C(=O)NCC(F)(F)F)c3n2)C[C@@H]1CC(C)C [Example 311, 2-[(3S)-4-acryloyl-3-(2-methylpropyl)piperazin-1-yl]-N-(2,2,2-trifluoroethyl)-5H-pyrrolo[2,3-b]pyrazine-7-carboxamide] | 1.78 | 223 |  | 586
C=CC(=O)N1CC[C@H](Nc2cnc3[nH]cc(C(=O)NCC4CC(F)(F)C4)c3n2)[C@H](OC)C1 [Example 322, 2-{[(3R,4S)-1-acryloyl-3-methoxypiperidin-4-yl]amino}-N-[(3,3-difluorocyclobutyl)methyl]-5H-pyrrolo[2,3-b]pyrazine-7-carboxamide] | 0.269 | 47 |  | 428
C=CC(=O)N1CC[C@@H](Nc2cnc3[nH]cc(C(=O)NC[C@H](C)CC(F)(F)F)c3n2)[C@@H](OC)C1 [Example 323, 2-{[(3S,4R)-1-acryloyl-3-methoxypiperidin-4-yl]amino}-N-[(2R)-4,4,4-trifluoro-2-methylbutyl]-5H-pyrrolo[2,3-b]pyrazine-7-carboxamide] | 0.392 | 69 |  | 430
C=CC(=O)N1CCC(C)(Nc2cnc3[nH]cc(C(=O)NCCCC(F)(F)F)c3n2)CC1 [Example 333, 2-[(1-acryloyl-4-methylpiperidin-4-yl)amino]-N-(4,4,4-trifluorobutyl)-5H-pyrrolo[2,3-b]pyrazine-7-carboxamide] | 0.307 | 44 |  | 774
C=CC(=O)N1CCC(C)(Nc2cnc3[nH]cc(C(=O)N[C@H](C)COC)c3n2)CC1 [Example 335, 2-[(1-acryloyl-4-methylpiperidin-4-yl)amino]-N-[(2R)-1-methoxypropan-2-yl]-5H-pyrrolo[2,3-b]pyrazine-7-carboxamide] | 0.262 | 57 |  | 849
